What was measured:
Delta-5-Desaturase (D5D) = biological target: T1, Delta-5-Desaturase (D5D) (Mus musculus, UniProt Q920L1); test: In vivo measurement of Delta-5-Desaturase inhibitory activity (plasma AA/DGLA ratio in DIO mice); details: single oral dose 30 mg/kg, relative to vehicle group
T1 construct: tissue Jackson Laboratories strain #3800050; host or cells: whole animal (DIO mice)
T1 sequence (Q920L1 1-447): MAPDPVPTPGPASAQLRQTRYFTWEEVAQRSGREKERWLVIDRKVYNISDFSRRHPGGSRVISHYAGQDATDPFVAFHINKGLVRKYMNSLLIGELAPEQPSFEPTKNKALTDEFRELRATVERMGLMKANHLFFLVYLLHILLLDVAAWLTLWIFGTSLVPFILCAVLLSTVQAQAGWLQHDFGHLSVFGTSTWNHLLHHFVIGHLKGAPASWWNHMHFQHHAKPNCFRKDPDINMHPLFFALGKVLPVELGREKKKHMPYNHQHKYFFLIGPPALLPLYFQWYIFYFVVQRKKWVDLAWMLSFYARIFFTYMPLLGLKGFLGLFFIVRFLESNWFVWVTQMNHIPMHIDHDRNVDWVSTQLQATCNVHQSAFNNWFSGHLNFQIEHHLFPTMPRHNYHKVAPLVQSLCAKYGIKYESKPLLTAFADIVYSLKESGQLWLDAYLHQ
Description: In Vivo Measurement of Delta-5-Desaturase Inhibitory Activity
Diet-induced obese (DIO; Jackson Laboratories strain #[…]) mice were used to screen for pharmacodynamic (PD) activity of test compounds. Generally, 14 to 24 week old DIO mice, were administered test compounds formulated in the vehicle of 2% hydroxypropyl methylcellulose (HPMC) and 1% Tween80. Animals were dosed on body weight by oral gavage with a single dose (30 mg/kg) for PD studies. Necropsy included plasma collection for PUFA analysis. 10 μl of plasma or standards diluted in surrogate matrix (65 g/l bovine serum albumin in Dulbecco's phosphate-buffered saline) were mixed with 10 μl of an internal standard (100 μM alpha-linolenic acid-d14 (ALA-d14, Cayman Chemical)) in a 96 well plate. 100 μl of 2N NAOH was added to the mixture for subsequent saponification at 65° C. for 1 hour. The mixture was then acidified with 50 μl of formic acid followed by two consecutive hexane extractions. Hexane (500 μl) was added and the mixture thoroughly mixed by vortexing, followed by centrifugation at 4,000 rpm for 15 min. The hexane phase was transferred to a new 1 ml 96 well plate and the remaining aqueous layer was extracted with hexane. The organic extracts were combined and the solvent was removed by placing the plate under nitrogen gas at 55° C. 250 μl of 90% methanol was added to the plate followed by vortexing for 2 minutes. 200 μl of the samples were transferred to a new 96 well polypropylene plate. The samples were analyzed on a LC-MS/MS for the following PUFAs: arachidonic acid (AA), dihomo-gamma-linolenic acid (DGLA), with ALA-d14 as the internal standard. Description of the LC-MS/MS method: 5 μl of sample was injected onto a Poroshell 120 EC-C18 3.0×50 mm, 1.9 μm id column. […] The PUFA peak areas were quantified by using the SCIEX Analyst software. […] The relative decrease of the AA/DGLA ratio of the test compound administered group relative to the vehicle administered group was calculated and used as an index for the degree of D5D inhibition. […]

[1] = biological target: T2, Delta-5-Desaturase (D5D), membrane preparations of D5D-overexpressing HEK293 6E cells (Homo sapiens, UniProt O60427); test: In vitro measurement of Delta-5-Desaturase inhibitory activity using DGLA-CoA and Arachidonyl-CoA mass spectrometric assays; format: biochemical; details: D5D membrane 10 μg/mL, one-hour incubation, average of at least two independent runs
T2 construct: expressed in transfected cells; host or cells: HEK293 6E cells (membrane preparation)
In short: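 Substrate mix (0.01 mM DGLA with NADH, ATP, coenzyme A) was incubated 1 h at room temperature with HEK293 6E D5D membranes at 10 μg/mL final, pH 7.5. Negative-mode SPE-MS/MS monitored DGLA-CoA (m/z 526.6) and arachidonyl-CoA (m/z 525.6). Inhibition normalised to DMSO and no-enzyme wells gave IC50s, mean of ≥2 runs.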

[2] = system: Diet-Induced Obese (DIO) mice; test: Assessment of D5D inhibitor in Diet-Induced Obese (DIO) mice; format: in vivo, Male C57BL/6J DIO mice; details: for Fat mass / Lean mass: day 22, EchoMRI; for Blood glucose: day 25, 4 hour fasted; for AA / Cholesterol / DGLA / Insulin / LDL cholesterol / Triglycerides: day 25, 4 hour fasted plasma; for Body weight / Liver weights / epididymal WAT / inguinal WAT: day 27
Source text: Assessment of D5D Inhibitor in Diet-Induced Obese (DIO) Mice
Male C57BL/6J DIO mice (Jackson Laboratories, Stock No.: 380050) were fed high-fat diet (Research Diets, Inc., D12492) for 12 weeks. All animals were given free access to water and chow. Animals were acclimated to per os dosing for 3 days prior to the start of the experiment. Animals were randomized on body weight, fat mass, lean mass, and blood glucose concentrations in to groups of 8 to 10 animals per group. Animals were twice daily dosed per os with either: vehicle (2% hydroxypropyl methylcellulose and 1% tween 80 in water), Example 2 at 10 mg/kg, or 30 mg/kg (formulated in 2% hydroxypropyl methylcellulose and 1% tween 80 in water), or Example 45 at 3 mg/kg, or 10 mg/kg (formulated in 2% hydroxypropyl methylcellulose and 1% tween 80 in water). Three-day average (Example 2) or daily average (Example 45) food consumption was measured at the indicated times as shown in Table 17 and Table 18. Body composition (EchoMRI) was determined on day 78 for Example 2 and day 22 for Example 45. For Example 2, a non-fasted blood collection was performed on day 81; blood glucose was immediately measured, and plasma samples created from the remaining blood and used to measure DGLA and AA concentrations. On day 84, a 4-hour fasted blood collection was performed, and plasma samples were created from the blood and used to measure cholesterol, triglycerides, low-density lipoprotein (LDL) cholesterol, insulin, and adipokine (adiponectin, leptin, and resistin) levels. For Example 45, 4 hour fasted blood samples were collected on day 25 and blood glucose was measured immediately and the plasma samples created from the remaining blood were used to measure cholesterol, triglycerides, LDL cholesterol, insulin, DGLA and AA concentration. At the end of the studies, liver, epididymal white adipose tissue, inguinal white adipose tissue, mesenteric (only Example 2) white adipose tissue weights were recorded. Data was analyzed using GraphPad Prism v 7.04.
The D5D inhibitor dose-dependently led to weight loss over the course of the experiment (Table 17 and Table 18) compared to vehicle controls. Consistently fat mass was reduced, along with lower inguinal, epididymal and mesenteric white adipose tissue (WAT) weights at necropsy. Blood glucose and plasma insulin levels were both reduced by the D5D inhibitor, along with reductions in plasma cholesterol and triglycerides. Evidence of target engagement was established by observing increases in plasma DGLA and decreases in plasma AA.

[3] = Example 45 3 mg/kg twice daily per os
[4] = Example 45 10 mg/kg twice daily per os

T2 sequence (O60427 whole entry, species assumed): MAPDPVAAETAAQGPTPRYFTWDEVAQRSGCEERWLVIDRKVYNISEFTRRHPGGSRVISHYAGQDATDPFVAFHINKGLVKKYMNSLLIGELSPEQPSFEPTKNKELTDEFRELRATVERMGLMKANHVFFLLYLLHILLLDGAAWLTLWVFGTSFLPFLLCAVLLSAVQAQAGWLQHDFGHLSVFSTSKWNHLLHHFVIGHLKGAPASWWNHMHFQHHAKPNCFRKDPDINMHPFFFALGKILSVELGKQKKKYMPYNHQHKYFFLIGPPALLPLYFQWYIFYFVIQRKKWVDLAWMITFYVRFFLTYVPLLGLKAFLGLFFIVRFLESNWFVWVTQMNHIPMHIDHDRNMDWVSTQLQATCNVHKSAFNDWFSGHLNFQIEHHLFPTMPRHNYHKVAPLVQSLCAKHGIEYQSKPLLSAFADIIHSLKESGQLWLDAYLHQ

For `Cc1cn2c(=O)c(-c3cnn(CC(F)(F)C(F)(F)F)c3)c(C(F)(F)F)nc2n1C` [Example 52, 1,2-dimethyl-6-[1-(2,2,3,3,3-pentafluoropropyl)-1H-pyrazol-4-yl]-7-(trifluoromethyl)-1H,5H-imidazo[1,2-a]pyrimidin-5-one], the “Average % D5D Inhibition expressed as Plasma Endogenous AA/DGLA Ratio” value (Delta-5-Desaturase (D5D)) was 74% and the IC50 [1] was 0.0475 µM.
In the case of `Cn1c(Cl)cn2c(=O)c(-c3cnn(CC(F)(F)C(F)(F)F)c3)c(C(F)(F)F)nc12` [Example 48, 2-chloro-1-methyl-6-[1-(2,2,3,3,3-pentafluoropropyl)-1H-pyrazol-4-yl]-7-(trifluoromethyl)-1H,5H-imidazo[1,2-a]pyrimidin-5-one], the “Average % D5D Inhibition expressed as Plasma Endogenous AA/DGLA Ratio” value (Delta-5-Desaturase (D5D)) is reported as 68% and the IC50 [1] is reported as 0.0068 µM.
`O=c1c(-c2cnn(CC(F)(F)C(F)(F)F)c2)c(C(F)(F)F)nc2sc(CO)nn12` [Example 45, 2-(hydroxymethyl)-6-[1-(2,2,3,3,3-pentafluoropropyl)-1H-pyrazol-4-yl]-7-(trifluoromethyl)-5H-[1,3,4]thiadiazolo[3,2-a]pyrimidin-5-one] showed a Food consumption ([2]; Example 45 3 mg/kg twice daily per os, day 0, daily average) of 2.5 ± 0.3 g/day, a Food consumption ([2]; Example 45 3 mg/kg twice daily per os, day 7, daily average) of 3.0 ± 0.3 g/day and a Food consumption ([2]; Example 45 3 mg/kg twice daily per os, day 14, daily average) of 2.7 ± 0.3 g/day. For the same molecule, the Food consumption ([2]; Example 45 3 mg/kg twice daily per os, day 21, daily average) was 2.7 ± 0.2 g/day, the Fat mass [2, 3] was 19.7 ± 2.2 g and the Lean mass [2, 3] was 27.4 ± 1.5 g. For the same molecule, the Blood glucose [2, 3] was 176.1 ± 9.4 mg/dL, the AA [2, 3] was 88.6 ± 18.9 µg/mL and the Cholesterol [2, 3] was 160.4 ± 43.7 mg/dL. For the same molecule, the DGLA [2, 3] was 286.9 ± 47.7 µg/mL, the Insulin [2, 3] was 7.2 ± 1.8 ng/mL and the LDL cholesterol [2, 3] was 130.6 ± 25.1 mg/dL. It also gave a Triglycerides [2, 3] of 32.6 ± 5.2 mg/dL, a Body weight [2, 3] of 47.8 ± 2.8 g and a Liver weights [2, 3] of 2.6 ± 0.4 g. For the same molecule, the “epididymal WAT” value [2, 3] was 1.8 ± 0.3 g, the “inguinal WAT” value [2, 3] was 2.2 ± 0.5 g and the Food consumption ([2]; Example 45 3 mg/kg twice daily per os, day 27, daily average) was 2.5 ± 0.2 g/day. The Food consumption ([2]; Example 45 10 mg/kg twice daily per os, day 0, daily average) was 2.6 ± 0.3 g/day, the Food consumption ([2]; Example 45 10 mg/kg twice daily per os, day 7, daily average) was 2.6 ± 0.3 g/day and the Food consumption ([2]; Example 45 10 mg/kg twice daily per os, day 14, daily average) was 2.4 ± 0.2 g/day. It also gave a Food consumption ([2]; Example 45 10 mg/kg twice daily per os, day 21, daily average) of 2.5 ± 0.2 g/day, a Fat mass [2, 4] of 16.9 ± 2.3 g and a Lean mass [2, 4] of 26.7 ± 1.1 g. It also gave a Blood glucose [2, 4] of 156.1 mg/dL, an AA [2, 4] of 38.2 ± 3.6 µg/mL and a Cholesterol [2, 4] of 162.8 mg/dL. The DGLA [2, 4] was 212.6 µg/mL, the Insulin [2, 4] was 5.2 ± 0.7 ng/mL and the LDL cholesterol [2, 4] was 129.0 mg/dL. It also gave a Triglycerides [2, 4] of 26.3 ± 5.5 mg/dL, a Body weight [2, 4] of 43.8 ± 3.1 g and a Liver weights [2, 4] of 2.6 ± 0.5 g. The “epididymal WAT” value [2, 4] was 1.7 ± 0.3 g, the “inguinal WAT” value [2, 4] was 1.9 ± 0.2 g and the Food consumption ([2]; Example 45 10 mg/kg twice daily per os, day 27, daily average) was 2.4 ± 0.2 g/day. It also gave an IC50 [1] of 0.0211 µM.

From patent publication US11512097B2, “Heterocyclic compounds as Delta-5 desaturase inhibitors and methods of use” (Amgen Inc., priority 2019, dated 2022)
